# Measurements taken from PubChem BioAssay (NCI).
#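 These data come from cells grown in 96-well plates and exposed to compound for 48 hours at five concentrations. TGI: total growth inhibition.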
# How the values were obtained:
# Test in all cases: NCI tumour cell line growth inhibition, 48 h
# UACC-62 melanoma = tested on: UACC-62 melanoma
# HT29 colon = tested on: HT29 colon
# RXF 393 renal = tested on: RXF 393 renal
# OVCAR-3 ovarian = tested on: OVCAR-3 ovarian
# EKVX NSCLC = tested on: EKVX NSCLC
# T-47D breast = tested on: T-47D breast
# DMS 273 small cell lung = tested on: DMS 273 small cell lung
# RXF-631 renal = tested on: RXF-631 renal
# MALME-3M melanoma = tested on: MALME-3M melanoma
# OVCAR-4 ovarian = tested on: OVCAR-4 ovarian
# OVCAR-8 ovarian = tested on: OVCAR-8 ovarian
# SW-620 colon = tested on: SW-620 colon
# IGROV1 ovarian = tested on: IGROV1 ovarian
# A498 renal = tested on: A498 renal
# OVCAR-5 ovarian = tested on: OVCAR-5 ovarian
# NCI-H23 lung = tested on: NCI-H23 lung
# SK-MEL-28 melanoma = tested on: SK-MEL-28 melanoma
# RPMI-8226 leukemia = tested on: RPMI-8226 leukemia
# NCI-H226 lung = tested on: NCI-H226 lung
# MDA-MB-231 breast = tested on: MDA-MB-231 breast
# MDA-N = tested on: MDA-N
# DMS 114 small cell lung = tested on: DMS 114 small cell lung
# LOX IMVI melanoma = tested on: LOX IMVI melanoma
# BT-549 breast = tested on: BT-549 breast
# HCT-116 colon = tested on: HCT-116 colon
# M19-MEL melanoma = tested on: M19-MEL melanoma
# CAKI-1 renal = tested on: CAKI-1 renal
# HOP-62 NSCLC = tested on: HOP-62 NSCLC
# PC-3 prostate = tested on: PC-3 prostate
# SR leukemia = tested on: SR leukemia
# SF-539 CNS = tested on: SF-539 CNS
# NCI-H522 lung = tested on: NCI-H522 lung
# LXFL 529 NSCLC = tested on: LXFL 529 NSCLC
# NCI-H460 lung = tested on: NCI-H460 lung
# MCF7 breast = tested on: MCF7 breast
# M14 melanoma = tested on: M14 melanoma
# SK-OV-3 ovarian = tested on: SK-OV-3 ovarian
# 786-0 renal = tested on: 786-0 renal
# NCI/ADR-RES ovarian = tested on: NCI/ADR-RES ovarian
# U251 CNS = tested on: U251 CNS
# A549 NSCLC = tested on: A549 NSCLC
# MDA-MB-435 = tested on: MDA-MB-435
# ACHN renal = tested on: ACHN renal
# SNB-78 CNS = tested on: SNB-78 CNS
# HS 578T breast = tested on: HS 578T breast
# SNB-19 CNS = tested on: SNB-19 CNS
# UO-31 renal = tested on: UO-31 renal
# KM12 colon = tested on: KM12 colon
# SF-295 CNS = tested on: SF-295 CNS
# UACC-257 melanoma = tested on: UACC-257 melanoma
# TK-10 renal = tested on: TK-10 renal
# SN12C renal = tested on: SN12C renal
# SNB-75 CNS = tested on: SNB-75 CNS
# HCT-15 colon = tested on: HCT-15 colon
# DU-145 prostate = tested on: DU-145 prostate
# KM20L2 colon = tested on: KM20L2 colon
# SK-MEL-2 melanoma = tested on: SK-MEL-2 melanoma
# SK-MEL-5 melanoma = tested on: SK-MEL-5 melanoma
# HOP-92 NSCLC = tested on: HOP-92 NSCLC
# COLO 205 colon = tested on: COLO 205 colon
# SF-268 CNS = tested on: SF-268 CNS
smiles,measurement,setting,value
CCN(CCCl)CCCCNc1c2ccccc2nc2ccc(OC)cc12,TGI,UACC-62 melanoma,1.59 µM
same,TGI,HT29 colon,3.31 µM
same,TGI,RXF 393 renal,1.7 µM
same,TGI,OVCAR-3 ovarian,3.78 µM
same,TGI,EKVX NSCLC,3.15 µM
same,TGI,T-47D breast,1.5 µM
same,TGI,DMS 273 small cell lung,1.44 µM
same,TGI,RXF-631 renal,4.51 µM
same,TGI,MALME-3M melanoma,2.89 µM
same,TGI,OVCAR-4 ovarian,2.79 µM
same,TGI,OVCAR-8 ovarian,1.94 µM
same,TGI,SW-620 colon,1.63 µM
same,TGI,IGROV1 ovarian,2.05 µM
same,TGI,A498 renal,0.875 µM
same,TGI,OVCAR-5 ovarian,2.96 µM
same,TGI,NCI-H23 lung,1.96 µM
same,TGI,SK-MEL-28 melanoma,8.36 µM
same,TGI,RPMI-8226 leukemia,4.08 µM
same,TGI,NCI-H226 lung,1.08 µM
same,TGI,MDA-MB-231 breast,3.99 µM
same,TGI,MDA-N,2.96 µM
same,TGI,DMS 114 small cell lung,1.83 µM
same,TGI,LOX IMVI melanoma,1.52 µM
same,TGI,BT-549 breast,7.41 µM
same,TGI,HCT-116 colon,1.29 µM
same,TGI,M19-MEL melanoma,1.68 µM
same,TGI,CAKI-1 renal,1.89 µM
same,TGI,HOP-62 NSCLC,3.71 µM
same,TGI,PC-3 prostate,1.14 µM
same,TGI,SR leukemia,1.55 µM
same,TGI,SF-539 CNS,4.69 µM
same,TGI,NCI-H522 lung,1.43 µM
same,TGI,LXFL 529 NSCLC,1.76 µM
same,TGI,NCI-H460 lung,1.39 µM
same,TGI,MCF7 breast,0.935 µM
same,TGI,M14 melanoma,2.92 µM
same,TGI,SK-OV-3 ovarian,2.77 µM
same,TGI,786-0 renal,1.56 µM
same,TGI,NCI/ADR-RES ovarian,> 100 µM
same,TGI,U251 CNS,1.72 µM
same,TGI,A549 NSCLC,2.27 µM
same,TGI,MDA-MB-435,2.12 µM
same,TGI,ACHN renal,1.72 µM
same,TGI,SNB-78 CNS,4.07 µM
same,TGI,HS 578T breast,> 100 µM
same,TGI,SNB-19 CNS,3.34 µM
same,TGI,UO-31 renal,4.51 µM
same,TGI,KM12 colon,1.82 µM
same,TGI,SF-295 CNS,3.64 µM
same,TGI,UACC-257 melanoma,10.5 µM
same,TGI,TK-10 renal,5.22 µM
same,TGI,SN12C renal,1.61 µM
same,TGI,SNB-75 CNS,2.14 µM
same,TGI,HCT-15 colon,5.43 µM
same,TGI,DU-145 prostate,1.74 µM
same,TGI,KM20L2 colon,3.35 µM
same,TGI,SK-MEL-2 melanoma,2.48 µM
same,TGI,SK-MEL-5 melanoma,1.98 µM
same,TGI,HOP-92 NSCLC,0.886 µM
same,TGI,COLO 205 colon,3.63 µM
same,TGI,SF-268 CNS,1.36 µM
